Data from EP1087941B9, “THIOLESTERS AND USES THEREOF” (THE UNITED STATES OF AMERICA, as represented by THE …, priority 1998, dated 1999).

Tests used:
[1] = biological target: T1, recombinant HIV-1 NCp7 protein (Human immunodeficiency virus type 1 group M subtype B, UniProt P03347); experiment: Trp37 zinc finger fluorescence (zinc ejection) assay; type: biochemical; set-up: Zinc Finger Reactivity, percent total decrease in flourescence / Zinc Finger Reactivity % Decrease: concentration or dose not given beside the values; details: for zinc finger reactivity in the presence of glutathione: 2 molar excess of glutathione; for Zinc Finger Reactivity, decrease in relative fluorescence units per 30 min. / Zinc Finger Reactivity, percent total decrease in flourescence: Table 7; for Zinc Finger Reactivity, percent total decrease in flourescence: value in parenthesis; for percent decrease in total Trp37 fluorescence (zinc ejection) at 2000 µM: 30 min incubation, read-out: Zinc Finger Reactivity % Decrease; for Zinc Finger Reactivity % Decrease: total percent decrease during a 30 min incubation; for zinc finger reactivity: result in words
T1 construct: within the nucleocapsid p7 (NCp7) protein portion of the polyprotein

[2] = biological target: T2, recombinant HIV-1 protease (Human immunodeficiency virus type 1 group M subtype B, UniProt P03366); experiment: HPLC-based protease substrate cleavage assay; type: biochemical; details: for IC50: Table 7, high dose test of 100 µM, read-out: Protease I50
T2 construct: Substrate cleavage of recombinant HIV-1 protease
Procedure: The 5-bromovaleroyl thioester, compound 44, and two 5-pyridiniovaleroyl thioesters, compounds 45 and 47, were analyzed in mechanistic and target-based assays. […] Assays for activity against HIV-1 reverse transcriptase rAdT (template/primer) and rCdG (template/primer) using recombinant HIV-1 reverse transcriptase (S. Hughes, ABL Basic Research NCI-FCRDC, Frederick MD) were performed as described by Rice (1997) supra. Substrate cleavage of recombinant HIV-1 protease in the presence of test compounds using an HPLC-based methodology with the artificial substrate Ala-Ser-Glu-Asn-Try- Pro-Ile-Val-amide (Multiple Peptide Systems, San Diego CA) was performed as described by Rice (1997) supra. The ability of recombinant HIV-1 integrase (S. Hughes, ABL Basic Research NCI-FCRDC, Frederick MD) to carry out 3' processing and strand transfer activities in the presence of test compounds was performed as described by Buckheit (1994) AIDS Res. Hum. Retroviruses 10:1497-1506, and Turpin (1998) Antimicrob. Agents Chemother. 42: 487-494.

[3] = biological target: T3, Pr^55gag precursor (Human immunodeficiency virus type 1 group M subtype B, UniProt P03347); experiment: Gag precursor cross-linking and processing in TNFα-induced U1 cells, Western blotting; type: cell-based, HIV-1; details: for cross-linking of viral precursor polyproteins: TNFα-induced U1 cells, Western blotting; for Pr^55gag precursor processing: after reduction with β-ME, compound 45 at 100 µM
T3 construct: Visualization of viral proteins from TNFα-induced U1 cells by electrophoretic separation and immunoblotting; endogenous in cells; host or cells: TNFα-induced U1 cells (integrated HIV-1 provirus)
Procedure: Thiolester compounds were also tested for their ability to inhibit HIV-1 replication in TNFα-induced U1 and ACH-2 cells. U1 cells were induced with 5 ng/ml of TNFα in the presence of various concentrations of the thiolesters 44, 45 or 47. Forty-eight hours later the cultures were characterized for virus p24 antigen production and cell viability. […] Compound 44 killed 60% of the cells at 200 µM. […] Precursor processing evaluation performed as described by Turpin (1997) Antiviral Chem. Chemother. 8:60-69. Thus, thiolester PATEs initiate intracellular disulfide cross-linking of precursor polyproteins during late phase virus assembly and mediate a direct virucidal effect via an attack on the mature NCp7 retroviral zinc fingers in the cell-free virus.
Virion cross linking was performed as described by Rice (1995) Science 270:1194-1197 and Turpin (1997) Antiviral Chem. Chemother. 8:60-67. Briefly, highly purified HIV-1 MN (11.8 µg total protein) was incubated for 2 hour with concentrations of compound. Virions were concentrated and residual compound was removed by centrifugation (18,000 x g, 1 h, 4°C). The viral pellet was solubilized in 0.5 M Tris-HCl,(pH 6.8), 50% glycerol, 8% SDS and 0.4% bromophenol blue and proteins resolved by Western blotting. Western blotting to detect the expression of HIV-1 proteins in U1 cells or virus pellets for virion cross-linking experiments was carried out as described by Turpin (1996) J. Virol. 70:6180-6189. Briefly, 50 µg of total cellular protein for U1 experiments or the total virion pellet (11.8 µg total viral protein) for NCp7 cross linking studies was resolved on 4 to 20% polyacrylamide gels in SDS with Tris-Glycine (Novex, San Diego CA). Samples for reduced gels were boiled for 5 min in the presence of 5% β-ME prior to loading. Resolved proteins were electroblotted on to polyvinylidene difluoride (PVDF) membranes, and HIV-1 specific proteins were detected using a mixture of goat anti- HIV-1 NCp7 and p24 or anti-NCp7 for virion proteins alone (a kind gift of L. E. Henderson, AIDS Vaccine Program NCI-FCRDC, Frederick, MD). Western blots were developed using standard chemiluminescence methodologies, as produced and described by Dupont-NEN, Wilmington, DE.

[4] = Table 5, average decrease in relative fluorescence units over 30 min
[5] = Table 6, average decrease in relative fluorescence units over 30 min
[6] = Table 8, GSH +: compounds (2 mM) treated 2 h at 37°C with 4 mM reduced glutathione

Structure (SMILES) | zinc finger reactivity in the presence of glutathione [1] | Zinc Finger Reactivity RFU/ min [1, 4] [RFU/ min] | Zinc Finger Reactivity RFU/ min [1, 5] [RFU/ min] | Zinc Finger Reactivity, decrease in relative fluorescence units per 30 min. [1] [RFU/30 MIN] | Zinc Finger Reactivity, percent total decrease in flourescence [1] [%] | Zinc Finger Reactivity RFU/ min [1, 6] [RFU/min] | percent decrease in total Trp37 fluorescence (zinc ejection) at 2000 µM [1, 6] [%] | Zinc Finger Reactivity RFU/ min ([1]; Table 8, GSH -) [RFU/min] | Zinc Finger Reactivity % Decrease ([1]; Table 8, GSH -) [%] | zinc finger reactivity [1] | inhibition of HIV-1 protease enzyme activity [2] | IC50 [2] [µM] | cross-linking of viral precursor polyproteins [3] | zinc finger reactivity / zinc ejection rate [1] [RFU/min] | Zinc Finger Reactivity RFU/ min ([1]; Table 10, average decrease in relative fluorescence units over 30 min) [RFU/ min] | Pr^55gag precursor processing [3]
CC(=O)NS(=O)(=O)c1ccc(NC(=O)c2ccccc2SC(=O)CCCCBr)cc1 [Compound 44, N-[2-(5-bromovaleroylthio)benzoyl]sulfacetamide] | maintained the capacity to attack the cysteine thiols | 1.8 | 1.8 | 1.8 | 13.3 | 2.4 | 28 | 6.5 | 60.1 | promoted metal ion (zinc) ejection | did not inhibit | > 100 | induced β-ME reversible alterations in the mobility of zinc finger containing HIV-1 precursor proteins |  |  | 
CC(=O)NS(=O)(=O)c1ccc(NC(=O)c2ccccc2SC(=O)CCCC[n+]2ccccc2)cc1 [Compound 45, N-[2-(5-pyridinio-valeroylthio)benzoyl]sulfacetamide bromide] | maintained the capacity to attack the cysteine thiols | 3.6 | 3.6 | 3.6 | 34.7 | 3.8 | 36.9 | 2.6 | 28.2 | promoted metal ion (zinc) ejection | did not inhibit | > 100 | induced cross-linking of viral precursor polyproteins | 3.6 | 3.6 | inhibited Pr^55gag precursor processing
O=C(CCCC[n+]1ccccc1)Sc1ccccc1C(=O)Nc1ccc(S(=O)(=O)c2ccc([N+](=O)[O-])cc2)cc1 [Compound 47] | maintained the capacity to attack the cysteine thiols |  | 4.1 | 4.1 | 17.9 | 1.6 | 21.1 | 1.6 | 24.3 | promoted metal ion (zinc) ejection | did not inhibit |  | induced cross-linking of viral precursor polyproteins |  |  | inhibited Pr^55gag precursor processing
